From the NIST ThermoML archive (doi:10.1021/je200707b)

Columns and labels:
[1] = xn = mol fraction of the nth substance listed; settings: 101.3 kPa, Liquid; for viscosity: Falling or rolling sphere viscometry; for mass density: Vibrating tube method
[2] = refractive index (Na D-line) (dimensionless); xn = mol fraction of the nth substance listed; settings: 298.15 K, 101.3 kPa, Liquid, Standard Abbe refractometry

CC(=O)O.CCCCN [butylammonium acetate] + CCCCO
[1]
Settings	mass density, 293.15 K [kg/m3]	mass density, 298.15 K [kg/m3]	mass density, 303.15 K [kg/m3]	mass density, 308.15 K [kg/m3]	mass density, 313.15 K [kg/m3]	viscosity, 293.15 K [mPa·s]	viscosity, 298.15 K [mPa·s]	viscosity, 303.15 K [mPa·s]	viscosity, 308.15 K [mPa·s]	viscosity, 313.15 K [mPa·s]
x1 = 0.029	817.08	813.28	809.45	805.57	801.67	3.564	3.19	2.787	2.455	2.164
x1 = 0.0583	824.15	820.36	816.55	812.7	808.82	4.397	3.806	3.318	2.908	2.592
x1 = 0.1003	833.62	829.88	826.11	822.23	818.46	5.588	4.823	4.165	3.636	3.17
x1 = 0.1981	853.55	849.9	846.22	842.52	838.78	9.789	8.389	7.151	6.123	5.297
x1 = 0.2981	871.49	867.92	864.33	860.72	857.08	17.14	14.41	12.18	10.39	8.894
x1 = 0.399	887.71	884.21	880.69	877.17	873.62	28.33	23.48	19.6	16.5	14
x1 = 0.497	901.99	898.53	895.09	891.62	888.15	50.23	41.01	33.21	28.45	23.98
x1 = 0.6489	921.84	918.48	915.12	911.75	908.37	107.74	86.03	69.14	56.31	45.89
x1 = 0.7984	939.21	935.95	932.68	929.4	926.1	225.04	170.61	138.1	109.79	87.65
x1 = 0.9003	949.8	946.58	943.37	940.16	936.93	389.54	287.99	216.86	167.15	129.84

[2]
Settings	refractive index
x1 = 0.029	1.3999
x1 = 0.0583	1.4023
x1 = 0.1003	1.4053
x1 = 0.1981	1.4115
x1 = 0.2981	1.417
x1 = 0.399	1.4217
x1 = 0.497	1.4256
x1 = 0.6489	1.4314
x1 = 0.7984	1.4366
x1 = 0.9003	1.4399

CC(=O)O.CCCCN [butylammonium acetate] + CCCO
[1]
Settings	mass density, 293.15 K [kg/m3]	mass density, 298.15 K [kg/m3]	mass density, 303.15 K [kg/m3]	mass density, 308.15 K [kg/m3]	mass density, 313.15 K [kg/m3]	viscosity, 293.15 K [mPa·s]	viscosity, 298.15 K [mPa·s]	viscosity, 303.15 K [mPa·s]	viscosity, 308.15 K [mPa·s]	viscosity, 313.15 K [mPa·s]
x1 = 0.0315	814.1	810.13	806.12	802.09	798.01	2.862	2.496	2.202	1.955	1.672
x1 = 0.0601	822.82	818.91	814.95	810.95	806.91	3.515	3.158	2.773	2.447	2.167
x1 = 0.0977	833.38	829.52	825.63	821.7	817.72	4.733	4.116	3.595	3.157	2.828
x1 = 0.198	857.48	853.76	850	846.22	842.42	8.602	7.371	6.367	5.493	4.77
x1 = 0.3002	877.71	874.1	870.46	866.8	863.11	17.5	14.77	12.51	10.66	9.154
x1 = 0.4021	894.7	891.19	887.65	884.1	880.52	31.54	26.08	22.23	18.48	15.72
x1 = 0.497	908.39	904.94	901.48	898.01	894.53	47.48	38.69	31.74	26.4	22.13
x1 = 0.6487	927.09	923.74	920.37	917	913.6	108.49	87.22	70.42	56.62	46.76
x1 = 0.799	942.52	939.27	936.01	932.73	929.43	244.69	186.83	148.78	116.88	93.14
x1 = 0.8981	951.47	948.25	945.03	941.83	938.61	445.2	326.53	244.83	186.41	144.84

[2]
Settings	refractive index
x1 = 0.0315	1.3875
x1 = 0.0601	1.3912
x1 = 0.0977	1.3953
x1 = 0.198	1.4045
x1 = 0.3002	1.4122
x1 = 0.4021	1.4185
x1 = 0.497	1.4236
x1 = 0.6487	1.4305
x1 = 0.799	1.4362
x1 = 0.8981	1.4395

CC(=O)O.CCCCN [butylammonium acetate] + CCO
[1]
Settings	mass density, 293.15 K [kg/m3]	mass density, 298.15 K [kg/m3]	mass density, 303.15 K [kg/m3]	mass density, 308.15 K [kg/m3]	mass density, 313.15 K [kg/m3]	viscosity, 293.15 K [mPa·s]	viscosity, 298.15 K [mPa·s]	viscosity, 303.15 K [mPa·s]	viscosity, 308.15 K [mPa·s]	viscosity, 313.15 K [mPa·s]
x1 = 0.0319	805.12	800.93	796.71	792.46	788.16	1.644	1.488	1.349	1.226	1.117
x1 = 0.0608	817.26	813.17	809.04	804.88	800.68	2.184	1.959	1.764	1.593	1.442
x1 = 0.0999	831.76	827.77	823.74	819.69	815.6	3.042	2.707	2.42	2.171	1.908
x1 = 0.1977	860.95	857.19	853.35	849.49	845.68	6.773	5.903	5.176	4.557	4.013
x1 = 0.2965	883.07	879.43	875.76	872.09	868.39	13.92	11.88	10.23	8.831	7.695
x1 = 0.4008	901.46	897.94	894.4	890.81	887.18	26.61	22.28	18.84	16.06	13.75
x1 = 0.5005	915.65	912.21	908.76	905.3	901.83	49.22	40.2	33.21	27.76	23.37
x1 = 0.6454	932.09	928.75	925.39	922.03	918.66	113.11	90.9	72.83	59.18	48.51
x1 = 0.8019	945.97	942.74	939.48	936.22	932.94	264.17	201.81	156.42	122.42	97.36
x1 = 0.9009	953.34	950.15	946.94	943.74	940.53	475.32	347.84	260.75	197.78	152.81

[2]
Settings	refractive index
x1 = 0.0319	1.3681
x1 = 0.0608	1.3731
x1 = 0.0999	1.3804
x1 = 0.1977	1.3965
x1 = 0.2965	1.4073
x1 = 0.4008	1.4152
x1 = 0.5005	1.4219
x1 = 0.6454	1.4292
x1 = 0.8019	1.436
x1 = 0.9009	1.4396

CC(=O)O.CCCCN [butylammonium acetate] + CO
[1]
Settings	mass density, 293.15 K [kg/m3]	mass density, 298.15 K [kg/m3]	mass density, 303.15 K [kg/m3]	mass density, 308.15 K [kg/m3]	mass density, 313.15 K [kg/m3]	viscosity, 293.15 K [mPa·s]	viscosity, 298.15 K [mPa·s]	viscosity, 303.15 K [mPa·s]	viscosity, 308.15 K [mPa·s]	viscosity, 313.15 K [mPa·s]
x1 = 0.0302	814.76	810.3	805.81	801.29	796.74	0.883	0.82	0.763	0.712	0.666
x1 = 0.0597	832.65	828.3	823.98	819.63	815.28	1.237	1.141	1.053	0.975	0.905
x1 = 0.1011	852.44	848.33	844.2	840.05	835.89	1.933	1.759	1.607	1.474	1.357
x1 = 0.1992	884.85	881.05	877.23	873.38	869.54	4.825	4.283	3.828	3.437	3.099
x1 = 0.301	906.27	902.66	899.04	895.45	891.77	11.1	9.608	8.354	7.294	6.415
x1 = 0.4023	920.99	917.52	914.03	910.53	907.04	23.22	19.57	16.66	14.34	12.54
x1 = 0.4995	931.42	928.03	924.64	921.23	917.83	44.76	36.68	30.45	25.59	21.65
x1 = 0.6524	943.29	940	936.69	933.39	930.08	115.48	92.51	69.01	53.46	47.61
x1 = 0.7993	951.52	948.31	945.07	941.83	938.59	256.45	195.97	151.07	118.32	94.24
x1 = 0.8988	955.88	952.69	949.49	946.3	943.09	418.49	312.52	242.56	183.85	142.67

[2]
Settings	refractive index
x1 = 0.0302	1.3413
x1 = 0.0597	1.3526
x1 = 0.1011	1.3665
x1 = 0.1992	1.3878
x1 = 0.301	1.403
x1 = 0.4023	1.4144
x1 = 0.4995	1.4212
x1 = 0.6524	1.4316
x1 = 0.7993	1.4365
x1 = 0.8988	1.4398
